Measured values as given in US9650395B2, “Antibacterial compounds and methods for use” (PTC Therapeutics, Inc., priority 2011, dated 2017).
Converted amounts (≈) assume the structure as drawn.

Tests used:
[1] = tested on: Moraxella catarrhalis (M. catarrhalis) 25238; assay: Antibacterial activity, MIC, M. catarrhalis 25238; type: cell-based; settings: Moraxella catarrhalis, M. catarrhalis 25238; read-out: MIC 25238
[2] = tested on: Pseudomonas aeruginosa (P. aeruginosa) 27853; assay: Antibacterial activity, MIC, P. aeruginosa 27853; type: cell-based; settings: Pseudomonas aeruginosa, P. aeruginosa 27853; read-out: MIC 27853
From the text: (§1) The antibacterial activity from a microbroth dilution method may be presented as the minimum inhibitory concentration (MIC in […]). The MIC value is the lowest concentration of a drug which prevents macroscopically visible bacterial growth under test conditions.
Antibacterial activity of test compounds against the Gram-negative bacterium Pseudomonas aeruginosa (P. aeruginosa) 27853 is shown in Table 5.

[3] = tested on: E. coli ELZ4000 (MDR clinical isolate); assay: Antibacterial activity, MIC, MDR E. coli ELZ4000; type: cell-based, Escherichia coli; settings: Escherichia coli; E. coli ELZ4000, MDR clinical isolate; read-out: MIC ELZ4000
[4] = tested on: super sensitive Gram-negative Escherichia coli (E. coli) BAS849; assay: Antibacterial activity, microbroth dilution MIC, E. coli BAS849; type: cell-based; settings: Escherichia coli; E. coli BAS849, microbroth dilution; read-out: MIC, BAS849
[5] = tested on: Neisseria meningitidis (N. meningitidis) 13090; assay: Antibacterial activity, MIC, N. meningitidis 13090; type: cell-based; settings: Neisseria meningitidis; N. meningitidis 13090; read-out: MIC 13090
[6] = tested on: control Gram-negative E. coli 25922 strain; assay: Antibacterial activity, microbroth dilution MIC, E. coli 25922; type: cell-based, Escherichia coli; settings: Escherichia coli; E. coli 25922, microbroth dilution; read-out: MIC, 25922
[7] = tested on: Gram-positive Staphylococcus aureus (S. aureus) 29213; assay: Antibacterial activity, microbroth dilution MIC, S. aureus 29213; type: cell-based; settings: Staphylococcus aureus; S. aureus 29213, microbroth dilution; read-out: MIC, 29213
[8] = tested on: Haemophilus influenzae (H. influenzae) 49247; assay: Antibacterial activity, MIC, H. influenzae 49247; type: cell-based; settings: Haemophilus influenzae; H. influenzae 49247; read-out: MIC 49247
From the text: as §1
Antibacterial activity of test compounds against the Gram-negative bacteria Haemophilus influenzae (H. influenzae) 49247, Moraxella catarrhalis (M. catarrhalis) 25238 and Neisseria meningitidis (N. meningitidis) 13090 is shown in Table 6.

[9] = tested on: E. coli ELZ4251 (MDR clinical isolate); assay: Antibacterial activity, MIC, MDR E. coli ELZ4251; type: cell-based, Escherichia coli; settings: Escherichia coli, E. coli ELZ4251, MDR clinical isolate; read-out: MIC ELZ4251
[10] = tested on: quinolone resistant E. coli LZ3111; assay: Antibacterial activity, MIC, quinolone resistant E. coli LZ3111; type: cell-based, Escherichia coli; settings: Escherichia coli, read-out: MIC, LZ3111
From the text: as §1
Mutations in these regions are known to confer a high level resistance to the quinolone class of antibiotics.

| SMILES | MIC [1] [µg/mL] | MIC [2] [µg/mL] | MIC [3] [µg/mL] | MIC [4] [µg/mL] | MIC [5] [µg/mL] | MIC [6] [µg/mL] | MIC [7] [µg/mL] | MIC [8] [µg/mL] | MIC [9] [µg/mL] | MIC [10] [µg/mL] |
| --- | --- | --- | --- | --- | --- | --- | --- | --- | --- | --- |
| CCc1cc(C(=O)O)c(=O)[nH]c1-c1ccc(N2CCC2)cc1 [Cpd 111, 6-[4-(azetidin-1-yl)phenyl]-5-ethyl-2-oxo-1,2-dihydropyridine-3-carboxylic acid] | < 1 | 12.5 to 150 (≈ 41.9 to 503 µM) | 12.5 to 150 (≈ 41.9 to 503 µM) | < 1 | < 1 | 1 to 3.5 (≈ 3.35 to 11.7 µM) | 12.5 to 150 (≈ 41.9 to 503 µM) | < 1 | 12.5 to 150 (≈ 41.9 to 503 µM) | 12.5 to 150 (≈ 41.9 to 503 µM) |
| CCc1cc(C(=O)O)c(=O)[nH]c1-c1ccc(N2CC(O)C2)cc1 [Cpd 121, 5-ethyl-6-[4-(3-hydroxyazetidin-1-yl)phenyl]-2-oxo-1,2-dihydropyridine-3-carboxylic acid] | < 1 | – | 12.5 to 150 (≈ 39.8 to 477 µM) | < 1 | < 1 | 3.5 to 12.5 (≈ 11.1 to 39.8 µM) | 12.5 to 150 (≈ 39.8 to 477 µM) | < 1 | 12.5 to 150 (≈ 39.8 to 477 µM) | 12.5 to 150 (≈ 39.8 to 477 µM) |
| CCc1cc(C(=O)O)c(=O)[nH]c1-c1ccc(N2CC[C@H](N)C2)cc1.Cl [Cpd 132, 6-{4-[(3S)-3-aminopyrrolidin-1-yl]phenyl}-5-ethyl-2-oxo-1,2-dihydropyridine-3-carboxylic acid hydrochloride] | < 1 | – | 12.5 to 150 | < 1 | < 1 | 1 to 3.5 | 3.5 to 12.5 | < 1 | 12.5 to 150 | 12.5 to 150 |
| CCc1cc(C(=O)O)c(=O)[nH]c1-c1ccc(N2C[C@@H](N)[C@H](OC)C2)cc1.Cl [Cpd 134, 6-{4-[(3R,4R)-3-amino-4-methoxypyrrolidin-1-yl]phenyl}-5-ethyl-2-oxo-1,2-dihydropyridine-3-carboxylic acid hydrochloride] | 3.5 to 12.5 | – | 12.5 to 150 | < 1 | < 1 | 3.5 to 12.5 | 12.5 to 150 | < 1 | 12.5 to 150 | 12.5 to 150 |
| CCc1cc(C(=O)O)c(=O)[nH]c1-c1ccc(N2CCC[C@H]2COC)cc1 [Cpd 146, 5-ethyl-6-{4-[(2S)-2-(methoxymethyl)pyrrolidin-1-yl]phenyl}-2-oxo-1,2-dihydropyridine-3-carboxylic acid] | < 1 | – | – | < 1 | < 1 | 12.5 to 150 (≈ 35.1 to 421 µM) | 12.5 to 150 (≈ 35.1 to 421 µM) | 1 to 3.5 (≈ 2.81 to 9.82 µM) | – | – |
| CCc1cc(C(=O)O)c(=O)[nH]c1-c1ccc(N2[C@H](COC)CC[C@H]2COC)cc1 [Cpd 148, 6-{4-[(2S,5S)-2,5-bis(methoxymethyl)pyrrolidin-1-yl]phenyl}-5-ethyl-2-oxo-1,2-dihydropyridine-3-carboxylic acid] | 12.5 to 150 (≈ 31.2 to 375 µM) | – | – | 3.5 to 12.5 (≈ 8.74 to 31.2 µM) | 3.5 to 12.5 (≈ 8.74 to 31.2 µM) | 12.5 to 150 (≈ 31.2 to 375 µM) | 12.5 to 150 (≈ 31.2 to 375 µM) | 12.5 to 150 (≈ 31.2 to 375 µM) | – | – |
| CCc1cc(C(=O)O)c(=O)[nH]c1-c1ccc(N2CCCC2c2nccs2)cc1 (stereo not shown) [Cpd 156, 5-ethyl-2-oxo-6-{4-[2-(1,3-thiazol-2-yl)pyrrolidin-1-yl]phenyl}-1,2-dihydropyridine-3-carboxylic acid] | < 1 | – | – | < 1 | < 1 | 12.5 to 150 (≈ 31.6 to 379 µM) | 12.5 to 150 (≈ 31.6 to 379 µM) | < 1 | – | – |
| CCc1c(-c2ccc(N(C)C)cc2)[nH]c(=O)c(C(=O)O)c1OC [Cpd 298, 6-[4-(dimethylamino)phenyl]-5-ethyl-4-methoxy-2-oxo-1,2-dihydropyridine-3-carboxylic acid] | 12.5 to 150 (≈ 39.5 to 474 µM) | – | – | 3.5 to 12.5 (≈ 11.1 to 39.5 µM) | 3.5 to 12.5 (≈ 11.1 to 39.5 µM) | 12.5 to 150 (≈ 39.5 to 474 µM) | 12.5 to 150 (≈ 39.5 to 474 µM) | 3.5 to 12.5 (≈ 11.1 to 39.5 µM) | – | – |
| C=CCN(CC=C)c1ccc(-c2[nH]c(=O)c(C(=O)O)c(O)c2CC)cc1 [Cpd 300, 6-{4-[di(prop-2-en-1-yl)amino]phenyl}-5-ethyl-4-hydroxy-2-oxo-1,2-dihydropyridine-3-carboxylic acid] | < 1 | – | 12.5 to 150 (≈ 35.3 to 423 µM) | 1 to 3.5 (≈ 2.82 to 9.88 µM) | < 1 | 12.5 to 150 (≈ 35.3 to 423 µM) | 1 to 3.5 (≈ 2.82 to 9.88 µM) | 12.5 to 150 (≈ 35.3 to 423 µM) | 12.5 to 150 (≈ 35.3 to 423 µM) | 12.5 to 150 (≈ 35.3 to 423 µM) |
| CCc1c(-c2ccc(N(C)C)s2)[nH]c(=O)c(C(=O)O)c1O [Cpd 306, 6-[5-(dimethylamino)thiophen-2-yl]-5-ethyl-4-hydroxy-2-oxo-1,2-dihydropyridine-3-carboxylic acid] | < 1 | – | 12.5 to 150 (≈ 40.5 to 486 µM) | < 1 | < 1 | 3.5 to 12.5 (≈ 11.4 to 40.5 µM) | 3.5 to 12.5 (≈ 11.4 to 40.5 µM) | < 1 | 12.5 to 150 (≈ 40.5 to 486 µM) | 12.5 to 150 (≈ 40.5 to 486 µM) |
